Measurements: patent US8410112B2, “Compounds useful as inhibitors of ATR kinase” (Vertex Pharmaceuticals Incorporated, priority 2008, dated 2013)

What follows are compounds tested against T1, full-length ATR (Homo sapiens, UniProt Q13535) (assay: ATR Inhibition Assay (radioactive-phosphate incorporation)). Conditions: Ki(app); 5 nM full-length ATR, 10 μM ATP, 800 μM target peptide, 25° C.
T1 construct: in the presence of 5 nM full-length ATR
Type: biochemical
How it was run: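 After a 10-min pre-incubation of compound with 5 nM enzyme at 25 °C, ATP was added to start the reaction (final 10 μM [γ-33P]ATP, 800 μM peptide; Tris/HCl pH 7.5, MgCl2, DTT), which ran 24 h. Incorporated 33P was captured on phosphocellulose filters, and Ki(app) was fitted by non-linear regression.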

T1 sequence (Q13535 whole entry): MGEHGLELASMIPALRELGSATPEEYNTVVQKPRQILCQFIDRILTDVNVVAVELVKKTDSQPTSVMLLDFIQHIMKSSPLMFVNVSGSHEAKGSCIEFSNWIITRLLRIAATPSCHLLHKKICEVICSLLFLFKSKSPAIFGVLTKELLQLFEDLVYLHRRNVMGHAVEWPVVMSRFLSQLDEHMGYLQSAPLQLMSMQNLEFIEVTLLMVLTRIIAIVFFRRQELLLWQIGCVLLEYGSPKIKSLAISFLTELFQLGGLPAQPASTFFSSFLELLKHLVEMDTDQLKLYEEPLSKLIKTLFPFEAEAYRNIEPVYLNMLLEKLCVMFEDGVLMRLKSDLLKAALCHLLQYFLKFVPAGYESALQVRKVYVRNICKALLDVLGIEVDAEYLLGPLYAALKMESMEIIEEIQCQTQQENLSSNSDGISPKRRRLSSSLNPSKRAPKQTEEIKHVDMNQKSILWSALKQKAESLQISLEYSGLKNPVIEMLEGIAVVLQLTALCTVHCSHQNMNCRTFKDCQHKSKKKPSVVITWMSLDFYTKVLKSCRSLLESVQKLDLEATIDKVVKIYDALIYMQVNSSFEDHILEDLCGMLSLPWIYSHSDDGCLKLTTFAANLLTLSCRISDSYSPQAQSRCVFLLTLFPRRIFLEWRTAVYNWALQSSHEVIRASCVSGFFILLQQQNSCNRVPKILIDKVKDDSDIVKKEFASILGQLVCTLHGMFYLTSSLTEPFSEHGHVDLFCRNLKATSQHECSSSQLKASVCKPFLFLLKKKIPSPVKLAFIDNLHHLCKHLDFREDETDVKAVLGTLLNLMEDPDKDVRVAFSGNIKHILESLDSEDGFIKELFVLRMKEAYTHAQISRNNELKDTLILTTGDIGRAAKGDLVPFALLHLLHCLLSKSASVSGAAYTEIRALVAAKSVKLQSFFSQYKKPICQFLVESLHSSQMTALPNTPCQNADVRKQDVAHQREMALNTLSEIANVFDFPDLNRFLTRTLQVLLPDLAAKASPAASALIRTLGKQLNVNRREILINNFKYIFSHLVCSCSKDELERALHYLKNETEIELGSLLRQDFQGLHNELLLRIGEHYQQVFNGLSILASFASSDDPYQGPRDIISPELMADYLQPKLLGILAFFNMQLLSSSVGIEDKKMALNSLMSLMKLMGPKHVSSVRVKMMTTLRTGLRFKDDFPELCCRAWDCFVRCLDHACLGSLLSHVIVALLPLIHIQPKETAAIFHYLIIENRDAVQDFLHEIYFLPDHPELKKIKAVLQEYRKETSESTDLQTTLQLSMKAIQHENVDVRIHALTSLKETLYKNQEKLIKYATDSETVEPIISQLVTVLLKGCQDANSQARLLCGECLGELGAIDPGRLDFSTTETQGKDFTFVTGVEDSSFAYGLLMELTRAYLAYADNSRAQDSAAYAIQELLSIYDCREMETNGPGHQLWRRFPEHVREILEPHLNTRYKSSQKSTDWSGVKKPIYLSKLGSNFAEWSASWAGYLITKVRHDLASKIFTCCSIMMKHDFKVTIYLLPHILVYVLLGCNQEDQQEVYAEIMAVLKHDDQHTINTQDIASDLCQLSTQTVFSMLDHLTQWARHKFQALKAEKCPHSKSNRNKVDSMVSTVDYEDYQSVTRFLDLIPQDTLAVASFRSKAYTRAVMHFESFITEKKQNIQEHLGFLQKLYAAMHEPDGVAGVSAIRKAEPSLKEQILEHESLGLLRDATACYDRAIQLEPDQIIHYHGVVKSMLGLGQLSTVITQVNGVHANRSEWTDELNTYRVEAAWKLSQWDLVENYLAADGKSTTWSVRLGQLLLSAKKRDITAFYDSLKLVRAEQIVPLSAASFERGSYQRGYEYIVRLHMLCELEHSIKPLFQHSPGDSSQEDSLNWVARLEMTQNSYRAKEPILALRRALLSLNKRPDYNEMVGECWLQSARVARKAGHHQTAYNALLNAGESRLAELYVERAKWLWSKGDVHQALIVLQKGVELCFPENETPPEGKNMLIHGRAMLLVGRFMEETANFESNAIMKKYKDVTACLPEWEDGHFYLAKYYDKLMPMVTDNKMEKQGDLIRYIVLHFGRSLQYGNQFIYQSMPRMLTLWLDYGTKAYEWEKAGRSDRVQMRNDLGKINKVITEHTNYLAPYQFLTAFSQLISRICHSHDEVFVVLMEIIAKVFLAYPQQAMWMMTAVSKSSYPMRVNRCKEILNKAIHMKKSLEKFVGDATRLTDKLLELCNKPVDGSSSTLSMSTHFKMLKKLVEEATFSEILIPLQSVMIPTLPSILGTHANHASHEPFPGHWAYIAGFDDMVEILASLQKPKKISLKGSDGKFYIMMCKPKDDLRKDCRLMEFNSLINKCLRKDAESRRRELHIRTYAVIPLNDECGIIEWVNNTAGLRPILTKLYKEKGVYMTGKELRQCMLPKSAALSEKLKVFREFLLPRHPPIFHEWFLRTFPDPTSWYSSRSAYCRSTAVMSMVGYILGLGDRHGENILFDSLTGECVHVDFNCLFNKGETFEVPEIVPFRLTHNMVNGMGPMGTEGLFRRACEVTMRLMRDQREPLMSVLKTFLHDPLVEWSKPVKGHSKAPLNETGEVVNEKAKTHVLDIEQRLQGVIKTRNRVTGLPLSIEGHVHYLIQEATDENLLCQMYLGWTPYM

Row | SMILES | Ki [µM]
1 | COCC(=O)N1CC=C(c2cnc(N)c(-c3nnc(-c4ccccc4)o3)n2)CC1 [Compound I-130, 1-(4-(5-amino-6-(5-phenyl-1,3,4-oxadiazol-2-yl)pyrazin-2-yl)-5,6-dihydropyridin-1(2H)-yl)-2-methoxyethanone] | < 0.1
2 | Cc1ccc2nc(-c3nc(N4CCC5(CC4)OCCO5)cnc3N)[nH]c2c1 [Compound I-33, 3-(6-methyl-1H-benzo[d]imidazol-2-yl)-5-(1,4-dioxa-8-azaspiro[4.5]decan-8-yl)pyrazin-2-amine] | 1 to 10
3 | Nc1ncc(N2CCN(C(=O)c3c(F)cccc3F)CC2)nc1-c1nnc(-c2ccccc2)o1 [Compound I-203, (4-(5-amino-6-(5-phenyl-1,3,4-oxadiazol-2-yl)pyrazin-2-yl)piperazin-1-yl)(2,6-difluorophenyl)methanone] | 0.1 to 1
4 | Cc1ccc2nc(-c3nc(N4CCC(C(F)(F)F)CC4)cnc3N)[nH]c2c1 [Compound I-31, 3-(6-methyl-1H-benzo[d]imidazol-2-yl)-5-(4-(trifluoromethyl)piperidin-1-yl)pyrazin-2-amine] | 1 to 10
5 | Nc1ncc(C2=CCN(c3nccs3)CC2)nc1-c1nc2ccccc2[nH]1 [Compound I-164, 3-(1H-benzo[d]imidazol-2-yl)-5-(1-(thiazol-2-yl)-1,2,3,6-tetrahydropyridin-4-yl)pyrazin-2-amine] | < 0.1
6 | Nc1ncc(C2=CCN(S(=O)(=O)c3cccnc3)CC2)nc1-c1nc2ccccc2[nH]1 [Compound I-241, 3-(1H-benzo[d]imidazol-2-yl)-5-(1-(pyridin-3-ylsulfonyl)-1,2,3,6-tetrahydropyridin-4-yl)pyrazin-2-amine] | < 0.1
7 | COCCOCC(=O)N1CCN(c2cnc(N)c(-c3nnc(-c4ccccc4)o3)n2)CC1 [Compound I-178, 1-(4-(5-amino-6-(5-phenyl-1,3,4-oxadiazol-2-yl)pyrazin-2-yl)piperazin-1-yl)-2-(2-methoxyethoxy)ethanone] | 0.1 to 1
8 | CCS(=O)(=O)N1CCN(c2cnc(N)c(-c3nc4ccccc4n3C)n2)CC1 [Compound I-15, 5-(4-(ethylsulfonyl)piperazin-1-yl)-3-(1-methyl-1H-benzo[d]imidazol-2-yl)pyrazin-2-amine] | 0.1 to 1
9 | CN(C)S(=O)(=O)N1CCN(c2cnc(N)c(-c3nnc(-c4ccccc4)o3)n2)CC1 [Compound I-83, 4-(5-amino-6-(5-phenyl-1,3,4-oxadiazol-2-yl)pyrazin-2-yl)-N,N-dimethylpiperazine-1-sulfonamide] | 0.1 to 1
10 | COCC(=O)N1CC=C(c2cnc(N)c(-c3nc4ccccc4[nH]3)n2)CC1 [Compound I-138, 1-(4-(5-amino-6-(1H-benzo[d]imidazol-2-yl)pyrazin-2-yl)-5,6-dihydropyridin-1(2H)-yl)-2-methoxyethanone] | < 0.1
11 | CCS(=O)(=O)N1CC=C(c2cnc(N)c(C(=O)Nc3cccnc3OC)n2)CC1 [Compound I-165, 3-amino-6-(1-(ethylsulfonyl)-1,2,3,6-tetrahydropyridin-4-yl)-N-(2-methoxypyridin-3-yl)pyrazine-2-carboxamide] | < 0.1
12 | Cc1ccc2nc(-c3nc(N4CCSCC4)cnc3N)[nH]c2c1 [Compound I-8, 3-(6-methyl-1H-benzo[d]imidazol-2-yl)-5-thiomorpholinopyrazin-2-amine] | 0.1 to 1
13 | CCS(=O)(=O)N1CCN(c2cnc(N)c(-c3cc4ccccc4o3)n2)CC1 [Compound I-29, 3-(benzofuran-2-yl)-5-(4-(ethylsulfonyl)piperazin-1-yl)pyrazin-2-amine] | 0.1 to 1
14 | Nc1ncc(C2=CCN(C(=O)C3CCCC3)CC2)nc1-c1nc2ccccc2[nH]1 [Compound I-206, (4-(5-amino-6-(1H-benzo[d]imidazol-2-yl)pyrazin-2-yl)-5,6-dihydropyridin-1(2H)-yl)(cyclopentyl)methanone] | 0.1 to 1
15 | CC(=O)N1CCN(c2cnc(N)c(-c3nc4ccc(C)cc4[nH]3)n2)CC1 [Compound I-10, 1-(4-(5-amino-6-(6-methyl-1H-benzo[d]imidazol-2-yl)pyrazin-2-yl)piperazin-1-yl)ethanone] | 0.1 to 1

More lines, now with the values ahead:

Row | Ki [µM] | SMILES
16 | 0.1 to 1 | CCC(=O)N1CCN(c2cnc(N)c(-c3nnc(-c4ccc(CNC)cc4)o3)n2)[C@H](C)C1 [Compound I-359, (R)-1-(4-(5-Amino-6-(5-(4-((methylamino)methyl)phenyl)-1,3,4-oxadiazol-2-yl)pyrazin-2-yl)-3-methylpiperazin-1-yl)propan-1-one]
17 | 0.1 to 1 | CNCc1ccc(-c2nnc(-c3nc(N4C[C@@H]5C(C(=O)N(C)C)[C@@H]5C4)cnc3N)o2)cc1 (stereo partly drawn) [Compound I-351, (1R,5S)-3-[5-Amino-6-[5-[4-(methylaminomethyl)phenyl]-1,3,4-oxadiazol-2-yl]pyrazin-2-yl]-N,N-dimethyl-3-azabicyclo[3.1.0]hexane-6-carboxamide]
18 | 0.1 to 1 | CCS(=O)(=O)N1CCN(c2cnc(N)c(-c3nnc(-c4ccccc4C)o3)n2)CC1 [Compound I-287, 5-(4-ethylsulfonylpiperazin-1-yl)-3-[5-(o-tolyl)-1,3,4-oxadiazol-2-yl]pyrazin-2-amine]
19 | 1 to 10 | Nc1ncc(N2CCN(C(=O)COc3ccccc3)CC2)nc1-c1nc2ccccc2[nH]1 [Compound I-273, 1-(4-(5-amino-6-(1H-benzo[d]imidazol-2-yl)pyrazin-2-yl)piperazin-1-yl)-2-phenoxyethanone]
20 | 0.1 to 1 | CCC(=O)N1CCC2(CCN(c3cnc(N)c(-c4nnc(-c5ccc(CNC)cc5)o4)n3)C2)C1 (centres unmarked) [Compound I-342, 1-(7-(5-Amino-6-(5-(4-((methylamino)methyl)phenyl)-1,3,4-oxadiazol-2-yl)pyrazin-2-yl)-2,7-diazaspiro[4.4]nonan-2-yl)propan-1-one]
21 | 0.1 to 1 | CC(C)C(=O)N1CC=C(c2cnc(N)c(-c3nc4ccccc4[nH]3)n2)CC1 [Compound I-293, 1-[4-[5-amino-6-(1H-benzimidazol-2-yl)pyrazin-2-yl]-3,6-dihydro-2H-pyridin-1-yl]-2-methyl-propan-1-one]
22 | < 0.1 | CCS(=O)(=O)N1CCN(c2cnc(N)c(-c3nnc(-c4sccc4C)o3)n2)CC1 [Compound I-294, 5-(4-ethylsulfonylpiperazin-1-yl)-3-[5-(3-methyl-2-thienyl)-1,3,4-oxadiazol-2-yl]pyrazin-2-amine]
23 | 0.1 to 1 | CCS(=O)(=O)N1CCN(c2cnc(N)c(-c3nnc(-c4ccc(CNC)cc4)o3)n2)CC1(C)C [Compound I-328, 5-(4-Ethylsulfonyl-3,3-dimethyl-piperazin-1-yl)-3-[5-[4-(methylaminomethyl)phenyl]-1,3,4-oxadiazol-2-yl]pyrazin-2-amine]
24 | 1 to 10 | Nc1ncc(N2CCN(Cc3ccccc3)CC2)nc1-c1nnc(-c2ccccc2)o1 [Compound I-300, 5-(4-benzylpiperazin-1-yl)-3-(5-phenyl-1,3,4-oxadiazol-2-yl)pyrazin-2-amine]
25 | 1 to 10 | COC(=O)N1CCN(c2cnc(N)c(-c3nc4ccccc4[nH]3)n2)CC1 [Compound I-268, methyl 4-(5-amino-6-(1H-benzo[d]imidazol-2-yl)pyrazin-2-yl)piperazine-1-carboxylate]
26 | < 0.1 | Nc1ncc(C2=CCN(S(=O)(=O)c3cccs3)CC2)nc1-c1nnc(-c2ccccc2)o1 [Compound I-245, 3-(5-phenyl-1,3,4-oxadiazol-2-yl)-5-(1-(thiophen-2-ylsulfonyl)-1,2,3,6-tetrahydropyridin-4-yl)pyrazin-2-amine]
